Patent US7635722B1, “Chemical induced intracellular hyperthermia” (priority 1998, dated 2009)
Where two headings read alike, the source gives them in different places.

Experiments:
[1] = cited from earlier work
[2] = format: in vivo, human
Method: Placement of physiologic monitoring sensors, intravenous fluids, supplemental oxygen (4 l/min) and optional oral diazepam sedation (5-10 mg) is initiated prior to treatment. Patients receive 0.85 to 1.0 liter of intravenous (IV) 5% dextrose in 0.25 normal saline per hour alternated with 5% dextrose in 0.5 normal saline plus 7.5 to 10 meq of KCl per liter to insure a urinary output of no less than 1 ml/kg/hr. […] Two hours after treatment and 48 hours post-treatment, serum chemistries and hematologic profiles are repeated. A typical patient flow chart is depicted in FIG. 14.
Pretreatment protocol: the patient was given 10 mg diazepam by mouth and dressed into a modified wet suit. The wet suit was cut lengthwise at the arms and legs. Velcro strappings were attached at the cuttings for closure, rapid removal or exposure of the limb(s). After placement of monitoring sensors, they were started on IV fluids of 5% dextrose, 0.5 normal saline with 7 meq K^+, infused at an initial rate of 12 cc/kg/hr. Evaporative heat loss from the head was minimized by a plastic shower cap and towels. A 401AC temperature probe (YSI Incorporated, Yellow Springs, Ohio) was inserted 11 cm. into the rectum. […] A TEEM 100 Metabolic Analysis System (AeroSport Inc., Ann Arbor, Mich.), with a modified face mask and oxygen delivery system (38-40% 02 saturation) for patient comfort and increased accuracy, was attached to the patient. Oxygen consumption (V02), carbon dioxide production (VC02), expired air volume (VE), heart rate (HR), and Kcal of heat produced were measured in 20 second intervals and extrapolated to minute or hourly rates.
Pretreatment protocol: all medications were stopped 2 weeks prior to treatment. The patient refused taking diazepam, placement of a Foley catheter and oxygen face mask. They dressed themself into a dry cold water immersion suit (Stearns, ISS-590I, Universal Adult) designed to prevent heat loss and modified for easy placement of physiologic monitors. Equipment for measurement of heart rate, temperature, carbon dioxide production and Kcal of heat produced were conducted as outlined in Example 1. An oral breathing tube was used to measure V02 from room air. Urine output was measured when the patient voluntarily urinated through a “Texas” catheter (superficial condom tightly fitted around the head of the penis with tubing connected to urine collection bag). The patient was informed that hyperthermia would be administered as tolerated by their stamina and monitored clinical parameters, not to exceed 5 hours, on a daily or every other day basis, for a total of 5 sessions.
Pretreatment protocol: the evening prior treatment the patient was instructed not to eat and dress in cotton undergarments. Approximately 4 hours prior to treatment 2 mg alprazolam was administered by mouth. The patient dressed themself into a dry cold water immersion suit (Stearns, previously described) with headgear. Monitoring sensors, including EKG display, IV fluids and Foley catheter were attached and the suit was zipped closed. The patient opted for oxygen supplementation. The modified face mask was connected to the TEEM 100 metabolic Analysis System for V02 measurements. Data was recorded as previously described.
Pretreatment protocol: the patient was transfused with three units of packed red blood cells. A Foley catheter was inserted on each day of treatment. They were covered in a water soaked blanket containing a polyethylene lining. A shower cap with towels was used to prevent heat loss from the head. Intravenous lines were placed into both arms with 19 gauge intracaths. EKG, heart rate, rectal thermistor, and V02 monitors were attached. Oxygen supplemented facemask and equipment was attached and data monitored as previously described under Example 1.
Pretreatment protocol: the patient was transfused with 2 units of packed red blood cells 48 hours prior to undergoing treatment. Intravenous fluids (Lactated Ringer's solution) were administered at a rate of 100 cc/hour. […]

hepatocyte = conditions: in less than 6 minutes after the hormonal action of glucagon; cited from earlier work
hepatitis C virus = experiment: DNP with interferon-alpha, chronic hepatitis C (Example 10); format: in vivo, human; conditions: patient history

## NC(=O)CC[C@@H]1NC(=O)[C@H](Cc2ccccc2)NC(=O)[C@H](Cc2ccc(O)cc2)NC(=O)[C@@H](N)CSSC[C@@H](C(=O)N2CCC[C@H]2C(=O)N[C@@H](CCCN=C(N)N)C(=O)NCC(N)=O)NC(=O)[C@H](CC(N)=O)NC1=O [vasopressin]
[1]; in vivo
  half-life: 5 min

## NC[C@H](O)c1ccc(O)c(O)c1 [Norepinephrine bitartrate (Levophed), Norepinephrine bitartrate]
[2]; Example 2, about 1 minute after vasopressor IV drip 1 microgram/min on DNP, from 90
  heart rate: 100
[2]; Example 2, about 1 minute after vasopressor IV drip on DNP
  V02: 0.85 L/min
[2]; Example 2, within 20 minutes of vasopressor on DNP
  core body temperature: 41.5 °C

## glucagon
hepatocyte
  stimulation of hepatocyte uncoupled V02: up to 100%
[1]; in plasma
  half-life: 9 min

## CN(C)c1ccc2nc3ccc(=[N+](C)C)cc-3sc2c1 [methylene blue]
[2]; Example 9, after methylene blue 2 mg/kg infusion, on DNP 3 mg/kg
  VO2: 450-500 cc/minute

## CNC(C)(C)Cc1ccccc1.CNC(C)(C)Cc1ccccc1.O=S(=O)(O)O [Mephenteramine sulfate]
[2]; Example 4, ten minutes after 30 mg intramuscular, before DNP
  heart rate: 96
[2]; Example 4, ten minutes after 30 mg intramuscular, before DNP, from 250
  V02: 320 cc/min

## NCCc1ccc(O)c(O)c1 [dopamine]
[2]; human, in vivo
  V02: 680-710 cc/min

## interferon alpha-2b
Hepatitis C virus; after 6 months of interferon alpha-2b with ribavirin, before relapse
  HCV-RNA: undetectable
Hepatitis C virus; after 12 weeks of interferon alpha-2b with ribavirin, anemia
  hemoglobin concentration: 9.2 g/deciliter

## Oc1ccc(CCCCNC[C@H](O)c2ccc(O)c(O)c2)cc1 [arbutamine]
[1]; in vivo
  half-life: 10 min
